Experimental data from patent US7704695B2, “Screening of compounds for BGT1 transporter activity” (XenoPort, Inc., priority 2005, dated 2010).

Key:
Assay type in all cases: cell-based
[1] = target: T1, hBGT1 (Homo sapiens, UniProt P48065); test: hBGT1 competition uptake assay (inhibition of 3H-GABA uptake); set-up: expressed in transfected cells; host or cells: HEK-TREx cells (HEK-TREx-BGT1 inducible line), induced with tetracycline/doxycycline and butyrate; conditions: HEK-TREx-BGT1 cells induced to express BGT1; FIG. 2
T1 sequence (P48065 1-614): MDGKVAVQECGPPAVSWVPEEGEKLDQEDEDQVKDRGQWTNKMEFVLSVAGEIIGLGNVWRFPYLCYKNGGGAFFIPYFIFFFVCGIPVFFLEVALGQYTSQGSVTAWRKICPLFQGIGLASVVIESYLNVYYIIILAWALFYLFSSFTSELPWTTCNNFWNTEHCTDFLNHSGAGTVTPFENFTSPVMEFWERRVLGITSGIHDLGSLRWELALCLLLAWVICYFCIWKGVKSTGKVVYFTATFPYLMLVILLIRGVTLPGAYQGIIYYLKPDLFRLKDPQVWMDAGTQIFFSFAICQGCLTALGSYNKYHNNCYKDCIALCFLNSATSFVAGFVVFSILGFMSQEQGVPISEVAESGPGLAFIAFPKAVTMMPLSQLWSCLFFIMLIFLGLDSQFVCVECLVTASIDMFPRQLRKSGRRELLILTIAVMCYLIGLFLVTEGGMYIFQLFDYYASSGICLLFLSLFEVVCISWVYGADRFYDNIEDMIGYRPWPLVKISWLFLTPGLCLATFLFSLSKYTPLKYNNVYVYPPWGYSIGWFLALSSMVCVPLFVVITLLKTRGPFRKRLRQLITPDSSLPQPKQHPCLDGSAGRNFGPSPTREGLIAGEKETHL
Protocol: Alternatively, cells were washed manually with equivalent volumes using a multichannel pipettor.
Non-specific uptake was determined by measuring the uptake into cells not induced to express the transporter (“no tet”).

[2] = target: T1, hBGT1; test: hBGT1 direct uptake assay (LC-MS-MS); set-up: expressed in transfected cells; host or cells: HEK-TREx cells (HEK-TREx-BGT1 inducible line), induced with tetracycline/doxycycline and butyrate; conditions: HEK-TREx-hBGT1 cells induced to express hBGT1
Protocol: Four concentrations (bracketing the affinity as measured by competition assays) per compound were routinely tested. Non-specific uptake was determined by measuring the uptake into cells not induced to express the transporter (“no tet”).
Typically, four concentrations bracketing the IC50 were tested. […] The samples were robustly vortexed and centrifuged for 10 minutes at 13,200 rpm to spin down any precipitate. […] Three additional 2-fold dilutions were made in the subsequent rows (B-D or […]) in HBSS.
An internal standard of 50 μM propranolol in 50:50 ethanol:water was also prepared.
The cells were washed twice in room temperature HBSS (100 μl/well/wash) using a 96-well plate washer (Bio Tek ELX405). Alternatively, cells were washed manually with equivalent volumes using a multichannel pipettor. Immediately before the assay was begun, the final 100 μl wash solution was removed from the cells.
After the final wash, as much of the wash buffer as possible was removed by aspirating the wells with a probe that reached the bottom of the wells. (Residual salts from the wash buffer can adversely affect the LC-MS-MS by disrupting the LC method or by suppressing the MS signal.) 150 μl of a 50:50 ethanol:water solution was added to each well to lyse the cells and extract the test compound. The plate was covered and allowed to sit for 20 minutes at room temperature to ensure cell lysis. […]

[3] = target: T1, hBGT1; test: Oocyte uptake assay with BGT1 cRNA-injected Xenopus oocytes; set-up: expressed in transfected cells; host or cells: Xenopus oocytes injected with in vitro transcribed BGT1 cRNA; conditions: oocytes expressing BGT1 protein
Protocol: For expression in Xenopus oocytes, in vitro BGT1 cRNA is prepared and injected into defoliculated oocytes.
To measure directly the uptake of possible substrates, an oocyte uptake assay is performed in which uptake of compounds is measured by mass spectroscopy. […] Oocytes injected with BGT1 cRNA are incubated at 16-18° C. until maximal transporter expression is reached. Oocytes from the same batch, not injected with cRNA, can be used as a control. […] Subpools are homogenized in 150 μl of ice cold 80% MeOH/H2O and lysed manually.

Compound: NCCCC(=O)O [GABA, γ-aminobutyric acid]
- Effect of unlabeled competitor on uptake of labeled GABA [1]: the uptake of labeled GABA decreased as the concentration of unlabeled GABA increased
- Direct Uptake Vmax [2]: 110 pmol/min/well

Compound: NCCCC(=O)O [^3H-GABA]
- 3H-GABA uptake versus noninjected controls [3]: higher levels of ^3H-GABA uptake than noninjected controls
